The values below come from patent US4611059A, “Pyridyl-substituted benzothiophenes” (The Upjohn Company, priority 1985, dated 1986).

The experiment concerns the target T1, TXA2 synthetase (Homo sapiens, UniProt P24557).
T1 construct: human platelet microsomes (HPM); from tissue; host or cells: human platelet microsomes
T1 sequence (P24557 1-533): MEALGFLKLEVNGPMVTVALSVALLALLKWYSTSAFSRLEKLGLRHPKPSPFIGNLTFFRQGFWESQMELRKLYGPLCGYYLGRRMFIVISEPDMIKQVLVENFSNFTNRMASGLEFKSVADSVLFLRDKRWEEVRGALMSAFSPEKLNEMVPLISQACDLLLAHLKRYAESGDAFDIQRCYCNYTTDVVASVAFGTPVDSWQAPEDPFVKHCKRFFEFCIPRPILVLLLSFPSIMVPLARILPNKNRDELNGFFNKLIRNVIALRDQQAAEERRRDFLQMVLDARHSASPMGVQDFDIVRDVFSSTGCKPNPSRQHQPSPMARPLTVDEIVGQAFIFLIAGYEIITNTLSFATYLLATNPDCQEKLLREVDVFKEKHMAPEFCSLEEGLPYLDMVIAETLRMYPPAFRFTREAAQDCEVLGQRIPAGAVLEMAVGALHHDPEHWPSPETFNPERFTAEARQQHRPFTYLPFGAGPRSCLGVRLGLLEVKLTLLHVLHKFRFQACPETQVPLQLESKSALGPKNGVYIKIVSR
In words: TXA2 inhibition test: TXA2 generated from PGH2 with human platelet microsomes, measured by the response of superfused rabbit aortic strips. Type of experiment: biochemical. The note with it: test compound added to human platelet microsomes 5 minutes before mixing with PGH2; rabbit aorta response; read-out: approximate ED50 (inhibiting TXA2 formation) (converted). How it is done: The compounds of the present invention were tested for TXA2 inhibition as follows:
Rabbit aortic strips were superfused in series with Krebs solution. Thromboxane A2 (TXA2) was generated by mixing prostaglandin H2 (PGH2) with human platelet microsomes (HPM).
Potential inhibitors were tested by comparing the response of the rabbit aorta to the amount of TXA2 produced by mixing PGH2 and HPM without the test compound in the reaction medium and then the amount of TXA2 produced when the test compound was added to the HPM 5 minutes before the HPM was mixed with PGH2. […] For a discussion of TXA2 synthetase inhibition testing see, e.g., R. Gorman, supra.

As to `O=C(O)c1cc2cc(Cc3cccnc3)ccc2s1` [Example 7, 5-(3-pyridinylmethyl)benzo[b]thiophene-2-carboxylic acid], the IC50 is approximately 3.71 nM.
